Columns and labels:
[1] = Flow cytometric calcium permeabilization of phosphatidylserine liposomes (DiD membrane probe, Fluo-3 calcium probe); format: biochemical; conditions: for channel formation / permeabilization of membranes to calcium: summary statement, FIG. 10 and 12; for permeability of liposomes to calcium: peptide stock in DMSO, final concentration 10 μM
Description: (§1) Unilamellar liposomes are created with Fluo-3 membrane-impermeant fluorescent dye sensitive to the concentration of calcium (an example of ion sensitive probe, ISP, at the FIG. 2). The buffer for the created liposomes is calcium-free, and can contain calcium-chelating agents, such as EGTA or EDTA. Both calcium-free and calcium-bound Fluo-3 effectively absorb light with wavelength of 488 nm (one of typical lasers used in flow cytometers, blue light). […] Measuring the fluorescence at 520 nm allows to distinguish the liposomes which contain free calcium and those which are impermeant to calcium.
(§2) To identify liposomes in the flow, lipids can be supplemented with a lipophilic dye such as 1,1′-dioctadecyl-3,3,3′,3′-tetramethylindodicarbocyanine (DiD), which serves as membrane probe (MP at the FIG. 2). […] However, after ion channels are formed in the particular liposome, the electrolytes are equilibrated between inside and outside of the liposome. Therefore, due to the presence of calcium outside, the liposomes with the channels will have high free calcium, so Fluo-3 will have intensive fluorescence.
(§3) In the flow cytometer, the appearance of channels is visible as increasing proportion of calcium-loaded liposomes compared with calcium-free liposomes. When every liposome becomes permeant to calcium, all liposomes will be presented as loaded with calcium. This condition is used for normalization and can be achieved in control experiments by the addition of calcium ionophore such as ionomycin.
Liposomes (400 nm) were made of phosphatidylserine with DiD and were extruded in the buffer without (A-C) or with (D-I) 1 mM Fluo-3. […] Liposomes with membrane but without calcium-sensitive probe in the presence of calcium. • D, E, F (Second row). Liposomes with both membrane and calcium-sensitive probe in the presence of calcium. • G, H, I (Third row). Liposomes with both membrane and calcium-sensitive probe in the absence of calcium. • A, D, G (First column). Liposomes only. • B, E, H (Second column). Liposomes with added 5 μM Aβ25-35. • C, F, I (Third column). Liposomes with added 5 μM Aβ25-35 followed by ionomycin.
Liposomes made of phosphatidylserine and contained both DiD and Fluo-3. In a calcium-containing medium, membranes are not permeant to calcium, so there is a minimal number of liposomes with increased levels of green fluorescence (A). […] Increasing concentration of amyloid peptide increases the number of permeant liposomes (C, D).
This figure summarizes data from experiments, described at the FIG. 10. Liposomes made of phosphatidylserine and contained both DiD and Fluo-3 were treated by various concentrations of Aβ25-35. For the treatment, the same stock solution of peptide in distilled water was added to the suspension of liposomes in a calcium-containing medium. The gate to count the number of permeabilized vesicles is shown at the density plot (left graph).
Phosphatidylserine liposomes were prepared to contain both DiD and Fluo-3 as described for previous figures. Liposomes were tested to be permeabilized by Aβ25-35. • A. Control PS liposomes with calcium (60 μM). Limited number of events is registered in the area corresponding to permeabilized vesicles. • B. Effect of Aβ1-42 (8 μM). […] Effect of ionomycin (50 nM, positive control).
In this experiment, stock solution of peptides was prepared in DMSO to extend the testing to the peptide which are not soluble in water-based excipients. […] There is no difference between the effects of the peptide that was dissolved initially in DMSO (“Lip+Pep/DMSO”) and water (not shown here). • C.
The permeabilization to calcium ions will be described first as an example. To detect calcium transmembrane transfer, calcium-sensitive probes are used, such as Fluo-3 or Fluo-4 which dramatically increase their fluorescence upon binding calcium. Liposomes are formed in a calcium-free medium containing calcium-sensitive probe. […]

[2] = Flow cytometric fluorescence test of phosphatidylcholine liposomes (DiD, Fluo-3); format: biochemical
Description: as §1, §2, §3
Liposomes (400 nm) were made of phosphatidylcholine with DiD and were extruded in the buffer containing 1 mM Fluo-3 (A-H) or without Fluo-3 (I, J).
The effect of Aβ25-35 was the same in calcium-free medium with EGTA (F,G).

## C[C@H](CCC(=O)O)C[C@H](C)C[C@H](C)C(=O)/C=C(\O)[C@H](C)C[C@H](C)C/C=C/[C@@H](C)[C@@H](O)[C@@H](C)[C@@H](O)C[C@@H]1CC[C@@](C)([C@H]2CC[C@@](C)([C@@H](C)O)O2)O1 [ionomycin]
[1]; 50 nM, calcium 60 μM
  permeabilization of liposomes (positive control): permeabilizes all liposomes
[1]; DiD-only vesicles and in the absence of calcium
  effect of ionomycin added following 5 μM Aβ25-35: did not produce any effect
[1]; liposomes with Fluo-3, calcium present
  Fluo-3 signal after ionomycin added following 5 μM Aβ25-35: did not further increase the Fluo-3 signal from vesicles with low DiD signal but additionally shifted upwards the part of the distribution with high DiD signal
[2]; liposomes with 1 mM Fluo-3, calcium present
  fluorescence after ionophore addition: significantly increased fluorescence

## Aβ1-42: full-length amyloid peptide
[1]; 8 μM peptide, calcium 60 μM, compared with control
  number of events in the area corresponding to permeabilized vesicles: does not exceed same number observed in control experiment
[1]
  channel formation / permeabilization of membranes to calcium: does not create channels permeabilizing membranes to calcium

## Aβ25-35: short fragment of beta-amyloid peptide that forms membrane channels (GSNKGAIIGLM; Amyloid-beta protein 42; UniProt P05067 696-706, looked up, fragment)
[1]
  time for effects of the peptide to develop after addition to liposomes: within the first minute
  permeability of liposomes to calcium: permeabilized liposomes
  channel formation / permeabilization of membranes to calcium: efficiently permeabilize multiple liposomes
[1]; 2 μM peptide, calcium-containing medium
  liposomes made permeant to calcium: makes some of liposomes permeant to calcium
[1]; 5 μM peptide, 400 nm liposomes with 1 mM Fluo-3, extravesicular calcium present
  green (Fluo-3) signal from vesicles: increased green signal from vesicles only in the presence of both Fluo-3 and calcium
[1]; 5 μM peptide, DiD-only liposomes or calcium-free buffer (EGTA)
  green signal from vesicles: did not have effect
[1]; incubation with the peptide for up to one hour
  change in number of permeabilized liposomes on prolonged incubation: does not change the number of permeabilized liposomes
[1]; phosphatidylserine liposomes, various conditions (FIG. 11)
  liposomes of total number that become permeant to calcium: up to 10%
[1]; various concentrations, stock in distilled water, calcium-containing medium
  dependence of number of permeabilized liposomes on amount of added peptide: linearly dependent on the amount of added peptide
[2]; calcium-free medium with EGTA
  effect on green signal compared with calcium-containing medium: the same
[2]; concentrations above 10 μM (20 μM, 50 μM), 400 nm liposomes with 1 mM Fluo-3, calcium present
  green signal from vesicles: slightly but reproducibly increased green signal from vesicles
[2]; liposomes extruded without Fluo-3
  shift of green fluorescence distribution: still shifted the distribution upward

## Aβ31-35: amyloid-beta peptide fragment tested at 10 μM from DMSO stock (IIGLM; Amyloid-beta protein 42; UniProt P05067 702-706, looked up, fragment)
[1]
  permeability of liposomes to calcium: did not affect the permeability of liposomes

— US20210349077A1, “Method of quantifying induced membrane permeability and of screening compounds able to prevent said permeability” (Zarbio, priority 2020, published 2021)
